In article PMC7745062 (Acta Pharmaceutica Sinica. B, 2020):
Entries after “also recorded” stand apart in the source; their conditions may differ.

Assays:
[1] = Metabolic stability in rat liver microsomes; format: in vitro ADME; conditions: for half-life at 0.1 μmol/L: rat, pH 7.4
PDE10A (449–770) = PDE10A (449–770) (Homo sapiens, UniProt Q9Y233); experiment: In vitro enzymatic activity assay
[2] = Metabolic stability in rat liver microsomes; format: in vitro ADME; conditions: RLM t1/2 (elimination half-life)
PDE1B (10–487) = PDE1B (10–487) (Homo sapiens, UniProt Q01064); experiment: In vitro enzymatic activity assay, PDE1B
[3] = target: hERG potassium channel (versus PDE10A) (Homo sapiens, UniProt Q12809); experiment: in vitro
PDE5A1 (535–860) = PDE5A1 (535–860) (Homo sapiens, UniProt O76074); experiment: In vitro enzymatic activity assay, PDE5A1
PDE4D2 (86–413) = PDE4D2 (86–413) (Homo sapiens, UniProt Q08499); experiment: In vitro enzymatic activity assay, PDE4D2
[4] = Reactivity with cysteine in aqueous phase; format: physicochemical; conditions: Cys ratio 1:1, 1H NMR in D2O against time
KM mice = experiment: Acute toxicity after single oral dose in mice; format: in vivo
[5] = target: T1, human ether-à-go-go-related gene (hERG) potassium channel (Homo sapiens, UniProt Q12809)
PDE2A (580–919) = PDE2A (580–919) (Homo sapiens, UniProt O00408); experiment: In vitro enzymatic activity assay, PDE2A
[6] = target: T1, human ether-à-go-go-related gene (hERG) potassium channel; experiment: cell-based; conditions: hERG IC50, peak tail current inhibition, 2−3 cells per concentration
PDE3A (679–1087) = PDE3A (679–1087) (Homo sapiens, UniProt Q14432); experiment: In vitro enzymatic activity assay, PDE3A
PDE8A1 (480–820) = PDE8A1 (480–820) (Homo sapiens, UniProt O60658); experiment: In vitro enzymatic activity assay, PDE8A1
[7] = Solubility in deionized water; format: physicochemical; conditions: pH 7, water
[8] = In vivo pharmacokinetics of 14·3HCl in rats; design: species or system Sprague–Dawley rats
[9] = test system: monocrotaline (MCT)-induced PAH rat model; experiment: Monocrotaline; format: in vivo; conditions: for mean pulmonary artery pressure (mPAP) / right ventricle hypertrophy index (RVHI%) / wall thickness percentage (WT%): p.o. for 3 weeks, 14·3HCl 2.5 mg/kg, tadalafil 5.0 mg/kg, vs model group
PDE7A1 (130–482) = PDE7A1 (130–482) (Homo sapiens, UniProt Q13946); experiment: In vitro enzymatic activity assay, PDE7A1
PDE9A2 (181–506) = PDE9A2 (181–506) (Homo sapiens, UniProt O76083); experiment: In vitro enzymatic activity assay, PDE9A2
[10] = male, Sprague-Dawley, rat, plasma, iv, 2.5 mg/kg
[11] = male, Sprague-Dawley, rat, plasma, po, 10 mg/kg

Chain of PDE1B (10–487) (Q01064 10-487): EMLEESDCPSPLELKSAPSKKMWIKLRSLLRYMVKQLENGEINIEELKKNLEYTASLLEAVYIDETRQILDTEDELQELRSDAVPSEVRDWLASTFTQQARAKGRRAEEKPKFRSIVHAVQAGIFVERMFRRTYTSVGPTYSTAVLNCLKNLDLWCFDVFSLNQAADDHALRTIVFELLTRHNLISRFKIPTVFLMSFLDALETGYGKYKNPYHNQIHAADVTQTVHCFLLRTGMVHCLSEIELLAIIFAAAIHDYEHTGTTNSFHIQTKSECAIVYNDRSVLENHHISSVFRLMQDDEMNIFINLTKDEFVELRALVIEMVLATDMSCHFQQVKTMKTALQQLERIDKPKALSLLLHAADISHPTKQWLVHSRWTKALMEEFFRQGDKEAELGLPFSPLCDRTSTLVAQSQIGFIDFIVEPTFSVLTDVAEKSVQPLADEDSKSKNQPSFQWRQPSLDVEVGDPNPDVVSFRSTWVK
Chain of PDE7A1 (130–482) (Q13946 130-482): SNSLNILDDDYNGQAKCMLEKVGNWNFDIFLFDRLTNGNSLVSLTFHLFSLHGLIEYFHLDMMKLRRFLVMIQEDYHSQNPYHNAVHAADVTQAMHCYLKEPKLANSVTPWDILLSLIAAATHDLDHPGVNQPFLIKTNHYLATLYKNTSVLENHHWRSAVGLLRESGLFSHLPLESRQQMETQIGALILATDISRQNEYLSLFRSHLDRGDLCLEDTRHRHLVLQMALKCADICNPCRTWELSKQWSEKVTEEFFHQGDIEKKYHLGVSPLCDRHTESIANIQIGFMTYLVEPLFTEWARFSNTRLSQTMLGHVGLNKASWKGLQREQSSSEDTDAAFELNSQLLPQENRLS
Chain of PDE2A (580–919) (O00408 580-919): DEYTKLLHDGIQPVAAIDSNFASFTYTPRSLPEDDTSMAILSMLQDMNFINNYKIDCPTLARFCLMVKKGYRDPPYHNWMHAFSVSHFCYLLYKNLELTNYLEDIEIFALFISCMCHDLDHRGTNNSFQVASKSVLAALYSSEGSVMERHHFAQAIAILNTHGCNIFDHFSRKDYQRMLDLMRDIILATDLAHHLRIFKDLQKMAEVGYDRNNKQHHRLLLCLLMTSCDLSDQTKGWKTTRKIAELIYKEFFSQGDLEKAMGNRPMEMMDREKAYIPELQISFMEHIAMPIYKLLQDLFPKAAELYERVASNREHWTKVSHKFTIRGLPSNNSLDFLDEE
Chain of PDE3A (679–1087) (Q14432 679-1087): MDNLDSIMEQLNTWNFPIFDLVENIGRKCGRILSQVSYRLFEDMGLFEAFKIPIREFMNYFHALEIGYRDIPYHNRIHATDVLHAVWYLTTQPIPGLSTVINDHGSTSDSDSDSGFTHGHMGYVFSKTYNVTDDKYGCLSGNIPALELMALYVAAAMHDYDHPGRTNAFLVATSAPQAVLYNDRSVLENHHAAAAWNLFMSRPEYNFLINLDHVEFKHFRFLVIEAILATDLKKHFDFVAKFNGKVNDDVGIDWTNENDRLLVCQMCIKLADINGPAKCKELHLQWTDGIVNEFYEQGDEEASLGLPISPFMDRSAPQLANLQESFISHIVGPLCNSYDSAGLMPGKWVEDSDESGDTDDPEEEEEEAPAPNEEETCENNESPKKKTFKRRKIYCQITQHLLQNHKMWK
Chain of PDE8A1 (480–820) (O60658 480-820): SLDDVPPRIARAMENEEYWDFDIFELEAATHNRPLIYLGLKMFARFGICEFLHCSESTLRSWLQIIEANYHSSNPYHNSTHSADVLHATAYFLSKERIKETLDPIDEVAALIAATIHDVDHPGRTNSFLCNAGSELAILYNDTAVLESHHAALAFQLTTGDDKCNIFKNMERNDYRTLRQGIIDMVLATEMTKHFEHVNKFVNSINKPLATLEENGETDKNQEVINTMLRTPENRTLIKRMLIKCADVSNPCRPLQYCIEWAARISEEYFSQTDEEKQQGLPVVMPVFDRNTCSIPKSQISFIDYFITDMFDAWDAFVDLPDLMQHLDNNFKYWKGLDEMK
Chain of PDE4D2 (86–413) (Q08499 388-715): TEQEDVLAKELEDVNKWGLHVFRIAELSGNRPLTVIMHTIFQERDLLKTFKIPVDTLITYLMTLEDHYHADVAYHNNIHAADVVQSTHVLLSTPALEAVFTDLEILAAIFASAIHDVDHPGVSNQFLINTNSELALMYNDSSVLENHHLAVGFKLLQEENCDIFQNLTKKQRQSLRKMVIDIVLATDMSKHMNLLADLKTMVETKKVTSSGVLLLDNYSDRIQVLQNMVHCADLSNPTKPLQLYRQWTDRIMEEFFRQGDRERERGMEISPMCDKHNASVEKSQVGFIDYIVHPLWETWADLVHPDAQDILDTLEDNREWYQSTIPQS
T1 sequence (Q12809 whole entry): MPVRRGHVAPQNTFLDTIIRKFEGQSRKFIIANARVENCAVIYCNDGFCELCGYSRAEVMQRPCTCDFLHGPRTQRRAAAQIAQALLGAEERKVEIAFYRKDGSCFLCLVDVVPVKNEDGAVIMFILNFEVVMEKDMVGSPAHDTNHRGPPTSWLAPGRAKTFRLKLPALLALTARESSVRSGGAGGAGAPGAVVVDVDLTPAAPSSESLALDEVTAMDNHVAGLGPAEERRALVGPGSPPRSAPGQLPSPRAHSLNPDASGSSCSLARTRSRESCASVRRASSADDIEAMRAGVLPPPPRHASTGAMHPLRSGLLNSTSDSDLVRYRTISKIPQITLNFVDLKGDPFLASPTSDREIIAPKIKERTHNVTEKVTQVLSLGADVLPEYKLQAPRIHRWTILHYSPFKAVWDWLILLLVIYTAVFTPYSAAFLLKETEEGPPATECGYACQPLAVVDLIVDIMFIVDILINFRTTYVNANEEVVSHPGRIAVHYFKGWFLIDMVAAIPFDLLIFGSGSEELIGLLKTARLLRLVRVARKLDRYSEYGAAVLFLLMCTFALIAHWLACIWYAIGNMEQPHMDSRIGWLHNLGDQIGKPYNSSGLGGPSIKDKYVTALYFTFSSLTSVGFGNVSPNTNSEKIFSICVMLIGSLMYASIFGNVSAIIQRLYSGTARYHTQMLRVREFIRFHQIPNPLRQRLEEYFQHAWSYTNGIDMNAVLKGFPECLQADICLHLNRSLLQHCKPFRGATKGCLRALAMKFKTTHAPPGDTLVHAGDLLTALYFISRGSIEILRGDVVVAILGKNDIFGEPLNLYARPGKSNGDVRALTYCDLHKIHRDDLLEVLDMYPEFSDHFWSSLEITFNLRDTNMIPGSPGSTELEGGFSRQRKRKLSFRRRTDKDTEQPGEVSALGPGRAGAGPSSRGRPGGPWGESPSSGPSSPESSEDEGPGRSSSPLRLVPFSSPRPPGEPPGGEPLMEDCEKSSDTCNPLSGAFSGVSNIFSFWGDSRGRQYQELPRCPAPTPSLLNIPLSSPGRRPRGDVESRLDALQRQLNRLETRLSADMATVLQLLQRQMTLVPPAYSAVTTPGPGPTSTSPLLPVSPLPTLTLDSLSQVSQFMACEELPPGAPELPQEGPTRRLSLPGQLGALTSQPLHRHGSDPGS
Chain of PDE10A (449–770) (Q9Y233 715-1036): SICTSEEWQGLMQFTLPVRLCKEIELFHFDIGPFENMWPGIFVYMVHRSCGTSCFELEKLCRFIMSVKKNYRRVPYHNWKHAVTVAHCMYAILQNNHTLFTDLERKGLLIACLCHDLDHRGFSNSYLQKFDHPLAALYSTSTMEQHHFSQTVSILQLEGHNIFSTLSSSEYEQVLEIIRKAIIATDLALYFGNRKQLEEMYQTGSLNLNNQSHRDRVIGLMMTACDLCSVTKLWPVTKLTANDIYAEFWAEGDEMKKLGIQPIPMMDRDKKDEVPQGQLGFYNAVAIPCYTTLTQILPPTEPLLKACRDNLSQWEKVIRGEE
Chain of PDE9A2 (181–506) (O76083 241-566): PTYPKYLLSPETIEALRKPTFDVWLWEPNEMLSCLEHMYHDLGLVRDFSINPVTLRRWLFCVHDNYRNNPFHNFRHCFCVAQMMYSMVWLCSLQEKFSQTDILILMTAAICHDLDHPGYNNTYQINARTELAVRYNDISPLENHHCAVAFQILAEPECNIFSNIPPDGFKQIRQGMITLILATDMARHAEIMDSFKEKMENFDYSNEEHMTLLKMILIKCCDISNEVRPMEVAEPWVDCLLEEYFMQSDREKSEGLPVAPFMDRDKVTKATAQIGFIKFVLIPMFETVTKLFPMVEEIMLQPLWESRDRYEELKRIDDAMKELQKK

Cc1ccc2c(c1)nc(/C=C/c1cccc3cccnc13)n2-c1cccc(OCCCN2CCOCC2)c1.Cl [13·3HCl, (E)-4-(3-(3-(5-Methyl-2-(2-(quinolin-8-yl)vinyl)-1H-benzo[d]imidazole-1-yl)phenoxy)propyl)morpholine hydrochloride]
CLint (intrinsic body clearance) [1]: 127.7 mL/(min·g·protein) | half-life at 0.1 μmol/L [1]: 16 min

Cc1ccc2c(c1)nc(/C=C/c1cccc3cccnc13)n2-c1ccccc1 [Compound 4, (E)-8-(2-(5-Methyl-1-phenyl-1H-benzo[d]imidazol-2-yl)vinyl)quinoline]
enhancement of PDE10A inhibition relative to compound 2 (PDE10A (449–770); C=C bond instead of C–C single bond): 3 fold | half-life at 1.5 μmol/L [2]: 17.4 min

COc1cccc(-n2c(/C=C/c3cccc4cccnc34)nc3cc(C)ccc32)c1 [Compound 10, (E)-8-(2-(1-(3-Methoxyphenyl)-5-methyl-1H-benzo[d]imidazole-2-yl)vinyl)quinoline]
CLint (intrinsic body clearance) [1]: 999.4 mL/(min·g·protein) | half-life at 0.1 μmol/L [1]: 2.1 min

Cc1ccc2c(c1)nc(/C=C/c1cccc3cccnc13)n2-c1cccc(S(=O)(=O)N2CCN(C)CC2)c1 [Compound 11, (E)-8-(2-(5-Methyl-1-(3-((4-methylpiperazin-1-yl)sulfonyl)phenyl)-1H-benzo[d]imidazole-2-yl)vinyl) quinoline]
CLint (intrinsic body clearance) [1]: 1390 mL/(min·g·protein) | half-life at 0.1 μmol/L [1]: 1.5 min

Cc1ccc2c(c1)nc(/C=C/c1cccc3cccnc13)n2-c1cccc(CN2CCN(C)CC2)c1 [Compound 12, (E)-8-(2-(5-Methyl-1-(3-((4-methylpiperazin-1-yl)methyl)phenyl)-1H-benzo[d]imidazole-2-yl)vinyl) quinoline]
CLint (intrinsic body clearance) [1]: 198.1 mL/(min·g·protein) | half-life at 0.1 μmol/L [1]: 11 min

Cc1ccc2c(c1)nc(/C=C/c1cccc3cccnc13)n2-c1cccc(OCCCN2CCN(C)CC2)c1.Cl [Compound 14·3HCl, (E)-8-(2-(5-Methyl-1-(3-(3-(4-methylpiperazin-1-yl)propoxy)phenyl)-1H-benzo[d]imidazole-2-yl)vinyl)quinoline hydrochloride]
selectivity over other PDE subtypes (PDE10A (449–770); against other PDE families): > 3500 fold | IC50 (PDE1B (10–487)): > 10 µM | Selectivity fold (PDE1B (10–487); IC50(PDE1B)/IC50(PDE10A2)): >3500 fold | CLint (intrinsic body clearance) [1]: 85.1 mL/(min·g·protein) | half-life at 0.1 μmol/L [1]: 25 min | selectivity ratio [3]: 1600 | IC50 (PDE5A1 (535–860)): > 10 µM | Selectivity fold (PDE5A1 (535–860); IC50(PDE5A1)/IC50(PDE10A2)): >3500 fold | IC50 (PDE4D2 (86–413)): > 10 µM | Selectivity fold (PDE4D2 (86–413); IC50(PDE4D2)/IC50(PDE10A2)): >3500 fold | reactivity of C=C bridge with cysteine [4]: insensitive to react with cysteine | acute toxicity (KM mice; oral administration): no obvious acute toxicity | dose well tolerated (KM mice; single oral dose): ≤ 1000 mg/kg | safety margin between hERG IC50 and plasma peak concentration (Cmax) [5]: 36 fold | IC50 (PDE2A (580–919)): > 10 µM | Selectivity fold (PDE2A (580–919); IC50(PDE2A)/IC50(PDE10A2)): >3500 fold | IC50 [6]: 4.5 µM | IC50 (PDE3A (679–1087)): > 10 µM | Selectivity fold (PDE3A (679–1087); IC50(PDE3A)/IC50(PDE10A2)): >3500 fold | IC50 (PDE8A1 (480–820)): > 10 µM | Selectivity fold (PDE8A1 (480–820); IC50(PDE8A1)/IC50(PDE10A2)): >3500 fold | solubility [7]: 4700 µg/mL | AUC(0-inf) [8, 10]: 1820 ± 297 ng·h/mL | AUC(0-t) [8, 10]: 1670 ± 184 ng·h/mL | Cmax [8, 10]: 230 ± 50 ng/mL | MRT last [8, 10]: 378 ± 48 min | Tmax [8, 10]: 24 ± 24 min | clearance [8, 10]: 23.3 mL/min/kg | half-life [8, 10]: 402 ± 90 min | AUC(0-inf) [8, 11]: 3550 ± 1010 ng·h/mL | AUC(0-t) [8, 11]: 3310 ± 812 ng·h/mL | Cmax [8, 11]: 272 ± 25 ng/mL | MRT last [8, 11]: 504 ± 42 min | Tmax [8, 11]: 360 ± 120 min | half-life [8, 11]: 312 ± 54 min | bioavailability, fold higher than A ([8]; rats, oral): ~20 fold | improvement of PAH medical indicators ([9]; 14·3HCl 2.5 mg/kg p.o. compared with tadalafil 5.0 mg/kg p.o.): comparable to tadalafil; also recorded: significantly ameliorating these PAH medical indicators; also recorded: significantly improved typical disease medical indicators | mean pulmonary artery pressure (mPAP) [9]: decreased | right ventricle hypertrophy index (RVHI%) [9]: decreased | wall thickness percentage (WT%) [9]: decreased | IC50 (PDE7A1 (130–482)): > 10 µM | Selectivity fold (PDE7A1 (130–482); IC50(PDE7A1)/IC50(PDE10A2)): >3500 fold | IC50 (PDE9A2 (181–506)): > 10 µM | Selectivity fold (PDE9A2 (181–506); IC50(PDE9A2)/IC50(PDE10A2)): >3500 fold

CN1CC(=O)N2[C@H](c3ccc4c(c3)OCO4)c3[nH]c4ccccc4c3C[C@@H]2C1=O [tadalafil, reference compound]
mean pulmonary artery pressure (mPAP) [9]: decreased | right ventricle hypertrophy index (RVHI%) [9]: decreased | wall thickness percentage (WT%) [9]: decreased
